Source: US20250268980A1, “AN ANTICANCER THERAPY TARGETING RAS AND OTHER ONCOGENIC SIGNALS BY INHIBITION OF DYNAMIC BLEBBING AND/OR SEPTINS” (THE BOARD OF REGENTS OF THE UNIVERSITY OF TEXAS SYSTEM, priority 2022, published 2025)

How the values were obtained:
MV3 cells = assay: Detached/adhered viability assay, ethidium homodimer staining, MV3; assay type: cell-based, human; details: for cell death: 24 hours of WGA
Experimental: (§1) Bleb formation was inhibited using wheat germ agglutinin (WGA), a lectin that reduces plasma membrane deformability by crosslinking components of the glycocalyx. […] To investigate putative bleb function as a driver of anchorage-independent cell survival assays were designed that consistently minimized both cell-substrate and cell-cell attachment over a period of 24 hours. This was accomplished by seeding cells at very low density (approx. 250 or 100 cells/ml) in non-adherent culture dishes under constant gentle agitation. For controls, cells were grown at identical concentrations in adherent variants of the same culture dishes. Together, this generated pairs of ‘detached’ and ‘adhered’ cell populations in paired same-day experiments.
Detached/Adhered Cell Culture. […] Drug treatments, solvent-only controls, or CellEvent caspase activity sensor were added to suspensions if appropriate to the experiment, and then immediately transferred to both an uncoated (for detached cells) and ibiTreated (for adhered cells) 8-well ibidi u-slide (ibidi cat #80821 and 80826) at 200 μl/well. Both slides were stored at 37° C. and 5% CO2 for either 24 hours (hrs) for viability assays, 3 hrs for ERK activity assays or 4 hours for caspase activation assays. Uncoated slides (detached) were nutated at 20 rpm during this time. […] For experiments using MAPKi A375 cells, Dabrafenib and Trametinib treatment was continued over the course of the experiment. […]
Viability, ERK Activity, and Caspase ActivityCell Counting Assays. Viability, ERK activity, and caspase activity assays were analyzed using live-cell fluorescent and phase-contrast microscopy, performed on a Nikon Ti microscope equipped with an environmental chamber held at 37° C. and 5% CO2 at 20× magnification. […] Live and dead cells (as identified by significant cellular ethidium signal) were counted using the Cell Counter ImageJ plugin. For ERK activity assays, live cells carrying ERK-nKTR-GFP and H2B-mCherry were imaged after 3 hours of experimental conditions and high/low ERK activity cells were counted with Cell Counter ImageJ plugin. […]

A375 cells = assay: Detached/adhered viability assay, ethidium homodimer staining, A375; assay type: cell-based, human; details: for anoikis resistance (cell death adhered vs detached): 24 hours
Experimental: as §1
Cell Culture and Reagents. MV3 cells were obtained from MD Anderson Cancer Center. A375 cells (ATCCR CRL1619) were acquired from ATCC. M498 cells were acquired from UT Southwestern.
Detached/Adhered Cell Culture. […] Drug treatments, solvent-only controls, or CellEvent caspase activity sensor were added to suspensions if appropriate to the experiment, and then immediately transferred to both an uncoated (for detached cells) and ibiTreated (for adhered cells) 8-well ibidi u-slide (ibidi cat #80821 and 80826) at 200 μl/well. Both slides were stored at 37° C. and 5% CO2 for either 24 hours (hrs) for viability assays, 3 hrs for ERK activity assays or 4 hours for caspase activation assays. Uncoated slides (detached) were nutated at 20 rpm during this time. […] For experiments using MAPKi A375 cells, Dabrafenib and Trametinib treatment was continued over the course of the experiment.
Cells Grown in VitroGel Coffins. VitroGel coffins were prepared by embedding MV3 or A375 cells in VitroGel 3D or RGD at 1:1 dilution according to manufacturer's instructions (TheWell Biosciences, sku #TWG001). […] A 1:1 solution of VitroGel and VitroGel Dilution Solution was made and added to cell suspension at a ratio of 4:1 (VitroGel: cells) using gentle pipetting until well-mixed (with care taken not to form bubbles). Cell/VitroGel solution was transferred to an 8-well uncoated ibidi μ-slide (ibidi cat #80821) at 100 μl/well, spread over the bottom of wells with a pipette tip, and allowed to polymerize at room temperature for 15 minutes. The remainder of the well was then filled with 10% FBS DMEM and slide was stored at 37° C. and 5% CO2 for either 24 hrs for viability assays, 3 hrs for ERK activity assays, or 1 hour for visualization of septins/PI3K activity.
Viability, ERK Activity, and Caspase ActivityCell Counting Assays. Viability, ERK activity, and caspase activity assays were analyzed using live-cell fluorescent and phase-contrast microscopy, performed on a Nikon Ti microscope equipped with an environmental chamber held at 37° C. and 5% CO2 at 20× magnification. For viability assays, cells were stained with ethidium homodimer-1 (Invitrogen cat #E1169) at 4 µM and Hoechst (ThermoFisher cat #H3570) at 10 μg/ml for 15 minutes before imaging. Live and dead cells (as identified by significant cellular ethidium signal) were counted using the Cell Counter ImageJ plugin. For ERK activity assays, live cells carrying ERK-nKTR-GFP and H2B-mCherry were imaged after 3 hours of experimental conditions and high/low ERK activity cells were counted with Cell Counter ImageJ plugin. Cells in which nuclear GFP signals were by eye higher than cytoplasmic signal (“brighter” nucleus visible within “darker” cytoplasm) were labelled ERK low, while cytoplasmic signals equal to or higher than nuclear signal (nucleus indistinguishable from cytoplasm or “darker” nucleus within “brighter” cytoplasm) were labelled ERK high. To control for unconscious bias in making this determination, the identity of all ERK experimental groups were blinded from the analyst. […]

Compound | anoikis resistance (cell death adhered vs detached) (MV3 cells; MV3, 50 μM FCF, 24 hours) | anoikis resistance (cell death adhered vs detached) (A375 cells; non-stressed A375, 50 μM FCF) | anoikis resistance (cell death adhered vs detached) (A375 cells; pre-stressed A375, 50 μM FCF) | cell death (MV3 cells; adhered MV3 cells) | cell death (MV3 cells; detached MV3 cells) | viability (A375 cells; adhered A375 pre-incubated 48 hours with 10 nM Dabrafenib and 1 nM Trametinib, WGA) | cell death (A375 cells; detached A375 pre-incubated 48 hours with 10 nM Dabrafenib and 1 nM Trametinib, WGA) | anoikis resistance upon bleb inhibition (A375 cells; pre-stressed A375 cells (overconfluent for 48 hours), WGA) | cell death (A375 cells; unstressed A375 cells, adhered or detached, 24 hours of WGA)
O=C(Nc1ccccc1)Nc1ccnc(Cl)c1 [FCF, forchlorfenuron] | greatly disrupted anoikis resistance | no appreciable effect | greatly disrupted anoikis resistance |  |  |  |  |  | 
wheat germ agglutinin [WGA] |  |  |  | little to none | high levels of cell death | minimal change in viability | increased cell death | strongly dependent upon blebbing | unaffected
